# Measured values as given in ChEMBL document CHEMBL1127387, “Synthesis and structure-activity relationships of a series of penicillin-derived HIV proteinase inhibitors: heterocyclic ring systems containing P1' and P2' substituents” (J Med Chem, 1994).
# Assays:
# [1] = molecular target: Human immunodeficiency virus type 1 protease (Human immunodeficiency virus 1, UniProt Q72874); test: In vitro inhibitory activity against HIV proteinase
# [2] = tested on: C8166; test: Compound was tested for effective concentration against C8166 cell line; type: functional, cell-based; conditions: Homo sapiens
# [3] = tested on: MT4; test: Compound was tested for effective concentration against MT-4 cell line; type: functional, cell-based; conditions: Homo sapiens
Structure (SMILES),IC50 [1] [nM],EC50 [2] [nM],EC50 [3] [nM]
CCO[C@@H]1C[C@@H](C(=O)NC(C)(C)C)N(C[C@@H](O)CNC(=O)[C@@H]2N[C@@H](C(NC(=O)Cc3ccccc3)C(=O)NCc3ccccc3)SC2(C)C)C1 (stereo partly specified),> 35000,–,–
CC(C)(C)NC(=O)C1N(C[C@H](O)CNC(=O)[C@@H]2N[C@@H](C(NC(=O)Cc3ccccc3)C(=O)NCc3ccccc3)SC2(C)C)C(C)(C)SC1(C)C (stereo partly specified),93,–,–
CC(C)(C)NC(=O)[C@@H]1C[C@@H]2CCCC[C@@H]2CN1C[C@@H](O)CNC(=O)[C@@H]1N[C@@H](C(NC(=O)Cc2ccccc2)C(=O)NCc2ccccc2)SC1(C)C (stereo partly specified),23,50,350
CCO[C@@H]1C[C@@H](C(=O)NC(C)(C)C)N(C[C@H](O)CNC(=O)[C@@H]2N[C@@H](C(NC(=O)Cc3ccccc3)C(=O)NCc3ccccc3)SC2(C)C)C1 (stereo partly specified),> 35000,–,–
CC(C)(C)NC(=O)[C@@H]1C[C@@H]2CCCC[C@@H]2CN1CC(O)CNC(=O)[C@@H]1N[C@@H](C(NC(=O)Cc2ccccc2)C(=O)NCCNC(=O)CCCC[C@@H]2SC[C@@H]3NC(=O)N[C@@H]32)SC1(C)C (stereo partly specified),120,–,18000
CCCCCCCNC(=O)C(NC(=O)Cc1ccccc1)[C@@H]1N[C@@H](C(=O)NCC(O)CN2C[C@H]3CCCC[C@H]3C[C@H]2C(=O)NC(C)(C)C)C(C)(C)S1 (stereo partly specified),86,–,> 100000
CC(C)(C)NC(=O)[C@@H]1C[C@H](OCc2ccccc2)CN1CC(O)CNC(=O)[C@@H]1N[C@@H](C(NC(=O)Cc2ccccc2)C(=O)NCc2ccccc2)SC1(C)C (stereo partly specified),650,–,–
CC(C)(C)NC(=O)[C@@H]1C[C@@H]2CCCC[C@@H]2CN1CC(O)CNC(=O)[C@@H]1N[C@@H](C(NC(=O)Cc2ccccc2)C(=O)NCCNC(=O)OC(C)(C)C)SC1(C)C (stereo partly specified),160,100,52
CC(C)(C)NC(=O)[C@@H]1CCCN1CC(O)CNC(=O)[C@@H]1N[C@@H](C(NC(=O)Cc2ccccc2)C(=O)NCc2ccccc2)SC1(C)C (stereo partly specified) [listing 1 of 2 here],3100,–,–
CC(C)(C)NC(=O)[C@@H]1CCCCN1C[C@@H](O)CNC(=O)[C@@H]1N[C@@H](C(NC(=O)Cc2ccccc2)C(=O)NCc2ccccc2)SC1(C)C (stereo partly specified),6500,–,–
CC(C)(C)NC(=O)[C@@H]1CCCN1CC(O)CNC(=O)[C@@H]1N[C@@H](C(NC(=O)Cc2ccccc2)C(=O)NCc2ccccc2)SC1(C)C (stereo partly specified) [listing 2 of 2 here],1500,–,–
CCNC(=O)C(NC(=O)Cc1ccccc1)[C@@H]1N[C@@H](C(=O)NCCNC(=O)[C@@H]2N[C@@H]([C@H](NC(=O)Cc3ccccc3)C(=O)NCC)SC2(C)C)C(C)(C)S1 (stereo partly specified),5,–,5400
CC(C)(C)NC(=O)[C@@H]1C[C@@H]2CCCC[C@@H]2CN1C[C@@H](O)[C@H](Cc1ccccc1)NC(=O)[C@H](CC(N)=O)NC(=O)c1ccc2ccccc2n1,–,2,2
CC(C)(C)NC(=O)[C@H]1CN(C(=O)Oc2ccccc2)CCN1C[C@@H](O)CNC(=O)[C@@H]1N[C@@H](C(NC(=O)Cc2ccccc2)C(=O)NCc2ccccc2)SC1(C)C (stereo partly specified),82,–,–
CC(C)(C)NC(=O)[C@H]1N(CC(O)CNC(=O)[C@@H]2N[C@@H]([C@H](NC(=O)Cc3ccccc3)C(=O)NCc3ccccc3)SC2(C)C)CSC1(C)C (stereo partly specified),21,–,–
CCNC(=O)C(NC(=O)Cc1ccccc1)[C@@H]1N[C@@H](C(=O)NCC(O)CN(C)[C@@H](CC2CCCCC2)C(=O)NC(C)(C)C)C(C)(C)S1 (stereo partly specified),710,–,–
CC(C)(C)NC(=O)C1N(C[C@@H](O)CNC(=O)[C@@H]2N[C@@H](C(NC(=O)Cc3ccccc3)C(=O)NCc3ccccc3)SC2(C)C)C(C)(C)SC1(C)C (stereo partly specified),190,–,–
CC1(C)S[C@H](C(NC(=O)Cc2ccccc2)C(=O)NCc2ccccc2)N[C@H]1C(=O)N[C@H](Cc1ccccc1)[C@H](O)CC(=O)NCc1ccccc1 (stereo partly specified),4600,–,–
COC(=O)C(NC(=O)Cc1ccccc1)[C@@H]1N[C@@H](C(=O)NC[C@H](O)CN2C[C@H]3CCCC[C@H]3C[C@H]2C(=O)NC(C)(C)C)C(C)(C)S1 (stereo partly specified),54,–,3900
CC(C)(C)NC(=O)[C@@H]1C[C@@H](OC(C)(C)C)CN1CC(O)CNC(=O)[C@@H]1N[C@@H](C(NC(=O)Cc2ccccc2)C(=O)NCc2ccccc2)SC1(C)C (stereo partly specified),1600,–,–
CC(C)(C)NC(=O)[C@@H]1C[C@@H]2CCCC[C@@H]2CN1C[C@@H](O)CNC(=O)[C@@H]1N[C@@H](C(NC(=O)Cc2ccccc2)C(N)=O)SC1(C)C (stereo partly specified),23,120,590
C[C@@H](C(=O)NC(C)(C)C)N(CC(O)CNC(=O)[C@@H]1N[C@@H](C(NC(=O)Cc2ccccc2)C(=O)NCc2ccccc2)SC1(C)C)CC1CCCCC1 (stereo partly specified),6400,–,–
CC(C)(C)NC(=O)[C@@H]1CN(C(=O)Oc2ccccc2)CCN1C[C@@H](O)CNC(=O)[C@@H]1N[C@@H](C(NC(=O)Cc2ccccc2)C(=O)NCc2ccccc2)SC1(C)C (stereo partly specified),58,–,–
CC(C)(C)NC(=O)[C@@H]1C[C@@H]2CCCC[C@@H]2CN1C[C@H](O)CNC(=O)[C@@H]1N[C@@H](C(NC(=O)Cc2ccccc2)C(=O)NCC2CCCCC2)SC1(C)C (stereo partly specified),300,–,–
CC(C)(C)NC(=O)[C@@H]1C[C@@H](O)CN1CC(O)CNC(=O)[C@@H]1N[C@@H](C(NC(=O)Cc2ccccc2)C(=O)NCc2ccccc2)SC1(C)C (stereo partly specified),5100,–,–
CC(C)(C)NC(=O)[C@@H]1CCCCN1C[C@H](O)CNC(=O)[C@@H]1N[C@@H](C(NC(=O)Cc2ccccc2)C(=O)NCc2ccccc2)SC1(C)C (stereo partly specified),> 2200,–,–
CC(C)(C)NC(=O)[C@@H]1CSCN1CC(O)CNC(=O)[C@@H]1N[C@@H](C(NC(=O)Cc2ccccc2)C(=O)NCc2ccccc2)SC1(C)C (stereo partly specified),450,–,–
CC(C)(C)NC(=O)[C@@H]1C[C@@H]2CCCC[C@@H]2CN1C[C@H](O)CNC(=O)[C@@H]1N[C@@H](C(NC(=O)Cc2ccccc2)C(=O)NCc2ccccc2)SC1(C)C (stereo partly specified),160,–,13600
CN(C)c1ccc(CNC(=O)C(NC(=O)Cc2ccccc2)[C@@H]2N[C@@H](C(=O)NC[C@H](O)CN3C[C@H]4CCCC[C@H]4C[C@H]3C(=O)NC(C)(C)C)C(C)(C)S2)cc1 (stereo partly specified),26,270,520
CCNC(=O)C(NC(=O)Cc1ccccc1)[C@@H]1N[C@@H](C(=O)NCC(O)CN2C[C@H]3CCCC[C@H]3C[C@H]2C(=O)NC(C)(C)C)C(C)(C)S1 (stereo partly specified),31,740,430
